Key:
[1] = biological target: T1, Adenosine receptor A2b (Homo sapiens) (UniProt P29275); experiment: Stimulation of human adenosine A2B receptor in production of cAMP in CHO cells; type: functional, cell-based
T1 sequence (whole entry): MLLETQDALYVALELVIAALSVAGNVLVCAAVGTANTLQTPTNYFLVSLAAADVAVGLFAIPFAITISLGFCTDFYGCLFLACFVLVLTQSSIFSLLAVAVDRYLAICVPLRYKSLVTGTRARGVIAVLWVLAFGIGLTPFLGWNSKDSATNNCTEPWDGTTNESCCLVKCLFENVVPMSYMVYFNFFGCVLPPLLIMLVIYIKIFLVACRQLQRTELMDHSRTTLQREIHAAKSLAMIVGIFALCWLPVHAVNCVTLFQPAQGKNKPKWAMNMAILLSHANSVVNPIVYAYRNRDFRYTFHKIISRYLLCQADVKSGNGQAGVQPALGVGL

Adenosine receptor A2a = Adenosine receptor A2a (Homo sapiens, UniProt P29274); experiment: biochemical
Description: Binding affinity against human adenosine A2A receptor expressed in HEK293 cells using [3H]ZM-241385

Adenosine receptor A1 = biological target: T2, Adenosine receptor A1 (Homo sapiens, UniProt P30542); experiment: Binding affinity against human adenosine A1 receptor expressed in CHO cells using [3H]DPCPX; type: cell-based
T2 sequence (P30542 whole entry): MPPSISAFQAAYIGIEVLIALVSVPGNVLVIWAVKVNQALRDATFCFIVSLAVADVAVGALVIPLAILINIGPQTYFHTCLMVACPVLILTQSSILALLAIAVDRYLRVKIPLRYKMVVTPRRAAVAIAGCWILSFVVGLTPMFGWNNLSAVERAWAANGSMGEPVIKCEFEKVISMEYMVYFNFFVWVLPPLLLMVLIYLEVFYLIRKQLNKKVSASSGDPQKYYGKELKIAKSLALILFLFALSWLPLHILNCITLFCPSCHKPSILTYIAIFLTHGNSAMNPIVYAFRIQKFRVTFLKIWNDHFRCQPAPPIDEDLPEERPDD

[2] = biological target: T3, Adenosine receptor A1 (Homo sapiens) (UniProt P30542); experiment: Inhibition of human adenosine A1 receptor in production of cAMP in CHO cells; type: functional, cell-based
T3 sequence (whole entry): T2 sequence (P30542 whole entry)

Adenosine receptor A2b = biological target: T4, Adenosine receptor A2b (Homo sapiens, UniProt P29275)
T4 sequence (P29275 whole entry): T1 sequence (whole entry)
Description: Agonistic activity against human adenosine A2B receptor expressed in CHO cells

[3] = biological target: T5, Adenosine receptor A3 (Homo sapiens) (UniProt P0DMS8); experiment: Inhibition of human adenosine A3 receptor in production of cAMP in CHO cells; type: functional, cell-based
T5 sequence (whole entry): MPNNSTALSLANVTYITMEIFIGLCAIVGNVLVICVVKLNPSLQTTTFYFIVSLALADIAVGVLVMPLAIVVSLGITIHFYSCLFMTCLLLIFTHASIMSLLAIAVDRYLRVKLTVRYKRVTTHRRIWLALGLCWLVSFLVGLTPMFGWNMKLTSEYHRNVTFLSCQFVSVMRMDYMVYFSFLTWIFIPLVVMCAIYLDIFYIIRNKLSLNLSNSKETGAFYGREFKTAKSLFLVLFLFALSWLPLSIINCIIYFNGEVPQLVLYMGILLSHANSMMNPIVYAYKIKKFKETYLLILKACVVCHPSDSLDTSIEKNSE

Adenosine receptor A3 = biological target: T6, Adenosine receptor A3 (Homo sapiens, UniProt P0DMS8); experiment: Binding affinity against human adenosine A3 receptor expressed on HEK293 cells using [125I]I-AB-MECA; type: cell-based
T6 sequence (P0DMS8 whole entry): T5 sequence (whole entry)

CHO = experiment: cells; conditions: Cricetulus griseus, read-out: pA2 (converted)

Adenosine receptor A2a, sequence (P29274 whole entry): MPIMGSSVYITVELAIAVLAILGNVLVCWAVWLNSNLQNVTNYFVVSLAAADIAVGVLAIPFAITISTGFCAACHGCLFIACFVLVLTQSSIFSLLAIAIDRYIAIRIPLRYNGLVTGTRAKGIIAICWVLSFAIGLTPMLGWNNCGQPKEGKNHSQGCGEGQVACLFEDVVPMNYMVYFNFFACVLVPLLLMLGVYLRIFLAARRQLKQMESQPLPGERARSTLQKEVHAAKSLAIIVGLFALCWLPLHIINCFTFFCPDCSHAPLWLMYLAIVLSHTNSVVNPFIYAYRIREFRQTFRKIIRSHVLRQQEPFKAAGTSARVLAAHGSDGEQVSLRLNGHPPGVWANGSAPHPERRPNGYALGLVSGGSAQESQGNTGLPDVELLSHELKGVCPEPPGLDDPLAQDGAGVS

With COc1ccc(-c2c(C#N)c(N)nc(SCc3ncc[nH]3)c2C#N)cc1 as the molecule, how does the Efficacy [1] read?
Its Efficacy is 33%.

And the Ki (Adenosine receptor A2a)?
The Ki was 214 nM.

And the Ki (Adenosine receptor A1)?
Its Ki is 7 nM.

What about the Efficacy [2] of the same molecule?
The Efficacy was 46%.

And the EC50 (Adenosine receptor A2b)?
The EC50 was 9 nM.

And the Efficacy [3]?
The Efficacy was 73%.

For COc1cccc(-c2c(C#N)c(N)nc(SCc3ncc[nH]3)c2C#N)c1, which Efficacy [1] is on record?
Its Efficacy is 68%.

And the Ki (Adenosine receptor A2a)?
The Ki was 105 nM.

And the Ki (Adenosine receptor A3)?
The Ki was 74 nM.

And the Ki (Adenosine receptor A1)?
The Ki was 2 nM.

And the Efficacy [2]?
The Efficacy was 80%.

What about the EC50 (Adenosine receptor A2b) of the same molecule?
Its EC50 is 34 nM.

And the Efficacy [3]?
Its Efficacy is 39%.

With Nc1nc2ccc(Cl)cc2c2nc(-c3ccco3)nn12 [CGS-15943] as the molecule, how does the Kb (CHO) read?
Its Kb is 5.01 nM.

With N#Cc1c(N)nc(SCc2ncc[nH]2)c(C#N)c1-c1ccccc1 as the molecule, how does the Efficacy [1] read?
Its Efficacy is 81%.

And the Efficacy [2]?
Its Efficacy is 109%.

And the Efficacy [3]?
Its Efficacy is 84%.

Which Efficacy [1] does the source give for N#Cc1c(N)nc(SCc2ncc[nH]2)c(C#N)c1-c1ccc(O)cc1 here?
The Efficacy was 74%.

And the Ki (Adenosine receptor A2a)?
The Ki was 28 nM.

And the Ki (Adenosine receptor A3)?
The Ki was 538 nM.

What about the Ki (Adenosine receptor A1) of the same molecule?
The Ki was 2.6 nM.

What about the Efficacy [2] of the same molecule?
The Efficacy was 103%.

And the EC50 (Adenosine receptor A2b)?
Its EC50 is 12 nM.

What about the Efficacy [3] of the same molecule?
Its Efficacy is 23%.

N#Cc1c(N)nc(SCc2ncc[nH]2)c(C#N)c1-c1cccc(O)c1 was tested. Which Efficacy [1] did it give?
Its Efficacy is 92%.

And the Ki (Adenosine receptor A2a)?
Its Ki is 21 nM.

What about the Ki (Adenosine receptor A3) of the same molecule?
The Ki was 104 nM.

What about the Ki (Adenosine receptor A1) of the same molecule?
Its Ki is 4.4 nM.

And the Efficacy [2]?
The Efficacy was 112%.

And the EC50 (Adenosine receptor A2b)?
The EC50 was 10 nM.

What about the Efficacy [3] of the same molecule?
The Efficacy was 95%.
